Literature values in patent US10155994B2, “Methods of detecting DDR2 mutations” (QUEST DIAGNOSTICS INVESTMENTS INCORPORATED, priority 2012, dated 2018).

Details: current daily oral dosing; from Bradeen et al. Blood 2006

SMILES	achievable plasma trough concentration [nM]
Cc1nc(Nc2ncc(C(=O)Nc3c(C)cccc3Cl)s2)cc(N2CCN(CCO)CC2)n1 [dasatinib]	100
Cc1cn(-c2cc(NC(=O)c3ccc(C)c(Nc4nccc(-c5cccnc5)n4)c3)cc(C(F)(F)F)c2)cn1 [nilotinib]	2000
